In brackets after ≈: the same amount, converted by molar mass.
System: Acinetobacter baumannii
Test: Antimicrobial activity against Acinetobacter baumannii
Type: functional

C[C@@H](O)[C@H]1C(=O)N2C(C(=O)O)=C(S[C@@H]3CN[C@H](C(=O)N(C)C)C3)[C@H](C)[C@H]12 [MEROPENEM]
MIC: 8 µg/mL (≈ 20.9 µM)

Source: ChEMBL document CHEMBL1671711, “Serum and cerebrospinal fluid levels of colistin in pediatric patients” (Antimicrob Agents Chemother, 2010)
